US12391679B2, “Benzamide-substituted bicyclic imidazo- and pyrazolo-fused -pyridine, -pyrimide, and -pyridazine compounds for treatment of inflammatory diseases” (ONCO3R Therapeutics BV, priority 2019, dated 2025)

Assays:
[1] = test system: Balb/c mice, IL-23 injected ear; experiment: Murine model of psoriatic-like epidermal hyperplasia induced by intradermal injections of IL-23; assay type: in vivo; conditions: mouse, intradermal IL-23
Method: Mouse recombinant IL-23, carrier free (Cat #14-8231) is provided by e-Bioscience (Frankfurt, Germany).
Balb/c mice (female, 18-20 g body weight) were obtained from Janvier Labs (Le Genest-Saint-Isle, France). Mice are kept on a 12 h light/dark cycle. Temperature was maintained at 22° C., food and water are provided ad libitum.
The design of the study was adapted from Rizzo H L. et al. (Rizzo et al. 2011).
On the first day (D1), the mice were shaved around the two ears. For 4 consecutive days (D1 to D4), the mice received a daily intradermal dose of mouse recombinant IL-23 (1 μg/20 μL in PBS/0.1% BSA) in the right pinna ear and 20 μL of PBS/0.1% BSA in the left pinna ear under anesthesia.
From D1 to D5, mice were dosed with test-compound or with vehicle, 1 h prior IL-23 injection.
The thickness of both ears was measured daily with an automatic caliper. Body weight was assessed at initiation and at sacrifice. On fifth day, 2 h after the last dosing, the mice were sacrificed. The pinnae of the ear were cut, excluding cartilage. The pinnae, placed in a vial containing 1 mL of RNAlater® solution.
There were 8 mice per group. The results were expressed as mean±SEM and statistical analysis was performed using one-way ANOVA followed by Dunnett's post-hoc test versus IL-23 vehicle groups.

SIK3 = molecular target: T1, SIK3 (Homo sapiens, UniProt Q9Y2K2); experiment: 33P radioactive kinase assay, SIK3; assay type: biochemical; conditions: 33P radioactive assay; AMARA 7 μM; 15 μM ATP; 80 min; average IC50
T1 construct: purchased SignalChem S12-11G-100
T1 sequence (Q9Y2K2 59-365 limits assumed): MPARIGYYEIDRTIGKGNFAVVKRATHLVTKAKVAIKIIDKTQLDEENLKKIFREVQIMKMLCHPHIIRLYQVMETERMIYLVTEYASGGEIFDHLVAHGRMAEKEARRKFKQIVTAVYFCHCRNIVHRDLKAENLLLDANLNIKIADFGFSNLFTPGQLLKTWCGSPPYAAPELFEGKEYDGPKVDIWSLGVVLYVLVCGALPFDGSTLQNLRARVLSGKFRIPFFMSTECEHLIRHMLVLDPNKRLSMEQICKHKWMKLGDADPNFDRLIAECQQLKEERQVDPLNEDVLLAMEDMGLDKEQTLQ
In short: (§1)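 SIK1, SIK2 or SIK3 phosphorylation of AMARA peptide with [33P]-γ-ATP plus unlabeled ATP. 10-point 1/5 dilution series, 1% DMSO final; reactions stopped with phosphoric acid, filter-harvested and scintillation-counted. Percentage inhibition and average IC50 derived from dose-response curves.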

SIK2 = molecular target: T2, SIK2 (Homo sapiens, UniProt Q9H0K1); experiment: 33P radioactive kinase assay, SIK2; assay type: biochemical; further: AMARA 5 µM, 10 µM ATP
T2 construct: purchased ThermoFisher Scientific PV4792
T2 sequence (Q9H0K1 whole entry): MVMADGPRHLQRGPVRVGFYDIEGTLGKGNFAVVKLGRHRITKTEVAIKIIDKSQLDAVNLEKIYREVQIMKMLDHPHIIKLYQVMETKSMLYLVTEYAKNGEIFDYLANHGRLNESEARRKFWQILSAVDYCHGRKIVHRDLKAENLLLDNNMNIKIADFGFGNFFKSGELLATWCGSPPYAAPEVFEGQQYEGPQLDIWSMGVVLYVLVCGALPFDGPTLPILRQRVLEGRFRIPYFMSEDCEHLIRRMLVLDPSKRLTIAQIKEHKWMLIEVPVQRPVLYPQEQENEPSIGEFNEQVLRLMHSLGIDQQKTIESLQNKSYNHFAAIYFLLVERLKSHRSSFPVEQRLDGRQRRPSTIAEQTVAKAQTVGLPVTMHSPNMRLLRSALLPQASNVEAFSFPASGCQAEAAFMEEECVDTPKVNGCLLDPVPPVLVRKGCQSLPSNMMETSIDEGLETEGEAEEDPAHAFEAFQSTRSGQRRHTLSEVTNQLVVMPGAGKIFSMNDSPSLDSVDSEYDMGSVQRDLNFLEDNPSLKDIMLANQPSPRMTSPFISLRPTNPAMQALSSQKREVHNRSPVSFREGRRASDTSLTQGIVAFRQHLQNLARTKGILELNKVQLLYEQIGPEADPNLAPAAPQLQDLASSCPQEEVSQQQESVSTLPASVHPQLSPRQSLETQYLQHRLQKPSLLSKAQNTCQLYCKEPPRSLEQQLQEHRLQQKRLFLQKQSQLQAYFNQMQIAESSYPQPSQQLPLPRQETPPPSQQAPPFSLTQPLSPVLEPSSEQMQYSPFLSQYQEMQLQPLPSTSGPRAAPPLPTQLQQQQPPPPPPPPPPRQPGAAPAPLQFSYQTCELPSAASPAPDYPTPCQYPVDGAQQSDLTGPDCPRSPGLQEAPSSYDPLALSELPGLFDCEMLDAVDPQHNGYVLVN
In short: as §1

SIK1 = molecular target: T3, SIK1 (Homo sapiens, UniProt P57059); experiment: 33P radioactive kinase assay, SIK1; assay type: biochemical
T3 construct: purchased Carna Biosciences 02-131
T3 sequence (P57059 whole entry): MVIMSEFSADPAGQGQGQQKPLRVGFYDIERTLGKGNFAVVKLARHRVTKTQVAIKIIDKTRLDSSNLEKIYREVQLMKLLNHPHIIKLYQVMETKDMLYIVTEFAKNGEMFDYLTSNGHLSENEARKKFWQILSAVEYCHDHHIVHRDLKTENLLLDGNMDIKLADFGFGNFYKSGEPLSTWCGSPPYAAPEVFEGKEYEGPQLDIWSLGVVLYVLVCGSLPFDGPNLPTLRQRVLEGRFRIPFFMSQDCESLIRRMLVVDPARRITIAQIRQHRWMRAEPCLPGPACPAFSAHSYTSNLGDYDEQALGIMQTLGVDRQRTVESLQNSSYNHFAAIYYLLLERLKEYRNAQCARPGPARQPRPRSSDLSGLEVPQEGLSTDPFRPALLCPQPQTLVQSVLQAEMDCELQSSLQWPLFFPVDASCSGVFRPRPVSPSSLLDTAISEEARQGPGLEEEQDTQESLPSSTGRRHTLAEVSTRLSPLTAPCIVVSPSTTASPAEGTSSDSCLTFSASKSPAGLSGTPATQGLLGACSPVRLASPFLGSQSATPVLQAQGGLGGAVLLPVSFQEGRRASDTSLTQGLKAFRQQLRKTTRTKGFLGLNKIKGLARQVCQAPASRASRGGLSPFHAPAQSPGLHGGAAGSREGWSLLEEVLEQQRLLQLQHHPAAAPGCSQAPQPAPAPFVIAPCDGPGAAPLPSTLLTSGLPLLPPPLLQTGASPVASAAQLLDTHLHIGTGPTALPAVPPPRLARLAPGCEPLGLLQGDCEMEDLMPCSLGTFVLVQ
In short: as §1

mouse CIA model = experiment: Collagen induced arthritis (CIA) model; assay type: in vivo
Method: Completed Freund's adjuvant (CFA) and incomplete Freund's adjuvant (IFA) were purchased from Difco. Bovine collagen type II (CII), lipopolysaccharide (LPS), and Enbrel® (etanercept) were obtained from Chondrex (L'Isle d'Abeau, France); Sigma (P4252, L'Isle d'Abeau, France), Wyeth (25 mg injectable syringe, France), respectively. All other reagents used were of reagent grade and all solvents were of analytical grade.
DBA1/J mice (male, 7-8 weeks old) were obtained from Charles River Laboratories (Écully, France). Mice were kept on a 12 h light/dark cycle. Temperature was maintained at 22° C., and food and water were provided ad libitum.
One day before the experiment, CII solution (2 mg/mL) was prepared with 0.05 M AcOH and stored at 4° C. Just before the immunization, equal volumes of adjuvant (IFA) and CII were mixed by a homogenizer in a pre-cooled glass bottle in an ice water bath. Extra adjuvant and prolonged homogenization may be required if an emulsion is not formed. 0.2 mL of the emulsion was injected intradermally at the base of the tail of each mouse on day 1, a second booster intradermal injection (CII solution at 2 mg/mL in […] 0.1 mL saline) was performed on […]. This immunization method was modified from published methods (Jou et al. 2005; Sims et al. 2004).
The therapeutic effects of the compounds were tested in the mouse CIA model. Mice were randomly divided into equal groups and each group contained 10 mice. All mice were immunized on day 1 and boosted on day 21. The negative control group was treated with vehicle (MC 0.5%) and the positive control group with Enbrel® (10 mg/kg, 3× week, sc). A compound of interest was typically tested at 3 doses per os (p.o.). At day 32, randomization between groups was performed with respect with clinical score and animals were therapeutically treated regarding their group until day 47. Body weight and clinical score, were recorded at least twice a week.
Arthritis is scored according to the method of Khachigian 2006, Lin et al 2007 and Nishida et al. 2004 (Khachigian 2006; Lin et al. 2007; Nishida et al. 2004). […]

IC50 (SIK3)	IC50 (SIK2)	IC50 (SIK1)	SMILES	further results
10 to 100 nM	> 500 nM	> 500 nM	CCC(C)(C#N)c1ccn2c(-c3cc(OC)c(C(=O)NC4CC4)c(OC(F)F)c3)cnc2c1 (stereo not drawn) [Cpd 27, 4-[7-(1-cyano-1-methyl-propyl)imidazo[1,2-a]pyridin-3-yl]-N-cyclopropyl-2-(difluoromethoxy)-6-methoxy-benzamide]	–
10 to 100 nM	> 500 nM	> 500 nM	COc1cc(-c2cnc3cc(C(C)(C)C#N)ccn23)cc(OC)c1C(=O)NC1CC1 [Cpd 28, 4-[7-(1-cyano-1-methyl-ethyl)imidazo[1,2-a]pyridin-3-yl]-N-cyclopropyl-2,6-dimethoxy-benzamide]	–
0.01 to 10 nM	10 to 100 nM	100 to 500 nM	COc1cc(-c2cnc3cc(C4(C#N)CC4)ccn23)cc(OC(F)F)c1C(=O)NC1CC1 [Cpd 33, 4-[7-(1-cyanocyclopropyl)imidazo[1,2-a]pyridin-3-yl]-N-cyclopropyl-2-(difluoromethoxy)-6-methoxy-benzamide]	–
–	–	–	COc1cc(-c2cnc3cc(C4(C#N)COC4)ccn23)cc(OC(F)F)c1C(=O)NC1CC1 [Cpd 117, 4-[7-(3-cyanooxetan-3-yl)imidazo[1,2-a]pyridin-3-yl]-N-cyclopropyl-2-(difluoromethoxy)-6-methoxy-benzamide]	ear thickness compared to IL-23 vehicle group ([1]; 30 mg/kg p.o. b.i.d.): statistically significant decrease
–	–	–	COc1cc(-c2cnc3cc(C4COC4)ccn23)cc(OC(F)F)c1C(=O)NC1CC1 [Cpd 174, N-cyclopropyl-2-(difluoromethoxy)-6-methoxy-4-[7-(oxetan-3-yl)imidazo[1,2-a]pyridin-3-yl]benzamide]	ear thickness compared to IL-23 vehicle group ([1]; 3 mg/kg p.o. b.i.d.): statistically significant decrease; clinical score compared to the vehicle group (mouse CIA model; 60 mg/kg p.o. b.i.d.): statistically significant decrease
–	–	–	COc1cc(-c2cnn3cc(C(C)(C)C#N)ccc23)cc(OC(F)F)c1C(=O)N[C@@H]1C[C@@H]1F [Cpd 219, 4-[6-(1-cyano-1-methyl-ethyl)pyrazolo[1,5-a]pyridin-3-yl]-2-(difluoromethoxy)-N-[(1R,2S)-2-fluorocyclopropyl]-6-methoxy-benzamide]	clinical score compared to the vehicle group (mouse CIA model; 3 mg/kg p.o. b.i.d.): statistically significant decrease
–	–	–	COc1cc(-c2cnn3cc(C4(N)CCC4)ccc23)cc(OC(F)F)c1C(=O)N[C@@H]1C[C@@H]1F [Cpd 261, 4-[6-(1-aminocyclobutyl)pyrazolo[1,5-a]pyridin-3-yl]-2-(difluoromethoxy)-N-[(1R,2S)-2-fluorocyclopropyl]-6-methoxy-benzamide]	clinical score compared to the vehicle group (mouse CIA model; 30 mg/kg p.o. b.i.d.): statistically significant decrease

SMILES	IC50 (SIK3)	IC50 (SIK2)	IC50 (SIK1)	further results
COc1cc(-c2cnc3cc(C(C)(C)C#N)ccn23)cc(OC(F)F)c1C(=O)NC1CC1 [Cpd 19, 4-[7-(1-cyano-1-methyl-ethyl)imidazo[1,2-a]pyridin-3-yl]-N-cyclopropyl-2-(difluoromethoxy)-6-methoxy-benzamide]	0.01 to 10 nM	> 500 nM	> 500 nM	ear thickness compared to IL-23 vehicle group ([1]; 10 mg/kg p.o. b.i.d.): statistically significant decrease
